{"source": "PubChem BioAssay AID1259407", "about": "(Chemical Carcinogenesis Research Information System (CCRIS), 2018)", "test_system": "CCRIS mutagenicity, Ames/micronucleus/aberration tests", "test": "CCRIS mutagenicity studies", "key": {"[1]": {"conditions": "Test System: AMES SALMONELLA TYPHIMURIUM, Strain/Indicator: TA98, Metabolic Activation: NONE, Method: PREINCUBATION"}}, "note": "Calls of active or inactive are those of the source. The rule behind the calls is not given here.", "data": [{"smiles": "O=[N+]([O-])c1ccc2c(c1)Oc1cc([N+](=O)[O-])ccc1O2", "values": [{"measurement": "mutagenic call", "setting": "Test System: AMES SALMONELLA TYPHIMURIUM, Strain/Indicator: TA98(1,8-DNP6), Metabolic Activation: NONE, Method: PREINCUBATION", "value": "active; positive"}, {"measurement": "mutagenic call", "setting": "Test System: AMES SALMONELLA TYPHIMURIUM, Strain/Indicator: TA98(1,8-DNP6), Metabolic Activation: NONE, Method: SUSPENSION", "value": "active; positive"}, {"measurement": "mutagenic call", "setting": "Test System: AMES SALMONELLA TYPHIMURIUM, Strain/Indicator: TA98(1,8-DNP6), Metabolic Activation: RAT, LIVER, S-9, PCB (5%), Method: PREINCUBATION", "value": "active; positive"}, {"measurement": "mutagenic call", "setting": "Test System: AMES SALMONELLA TYPHIMURIUM, Strain/Indicator: TA98(NR), Metabolic Activation: NONE, Method: PREINCUBATION", "value": "inactive; negative"}, {"measurement": "mutagenic call", "setting": "Test System: AMES SALMONELLA TYPHIMURIUM, Strain/Indicator: TA98(NR), Metabolic Activation: NONE, Method: SUSPENSION", "value": "inactive; negative"}, {"measurement": "mutagenic call", "setting": "Test System: AMES SALMONELLA TYPHIMURIUM, Strain/Indicator: TA98(NR), Metabolic Activation: RAT, LIVER, S-9 (15%), Method: PREINCUBATION", "value": "active; positive"}, {"measurement": "mutagenic call", "setting": "Test System: AMES SALMONELLA TYPHIMURIUM, Strain/Indicator: TA98(NR), Metabolic Activation: RAT, LIVER, S-9, 3-METHYLCHOLANTHRENE (15%), Method: PREINCUBATION", "value": "active; positive"}, {"measurement": "mutagenic call", "setting": "Test System: AMES SALMONELLA TYPHIMURIUM, Strain/Indicator: TA98(NR), Metabolic Activation: RAT, LIVER, S-9, BETA-NAPHTHOFLAVONE (15%), Method: PREINCUBATION", "value": "active; positive"}, {"measurement": "mutagenic call", "setting": "Test System: AMES SALMONELLA TYPHIMURIUM, Strain/Indicator: TA98(NR), Metabolic Activation: RAT, LIVER, S-9, PCB (5 OR 15%), Method: PREINCUBATION", "value": "active; positive"}, {"measurement": "mutagenic call", "setting": "Test System: AMES SALMONELLA TYPHIMURIUM, Strain/Indicator: TA98(NR), Metabolic Activation: RAT, LIVER, S-9, PHENOBARBITAL (15%), Method: PREINCUBATION", "value": "active; positive"}, {"measurement": "mutagenic call", "setting": "[1]", "value": "active; positive"}, {"measurement": "mutagenic call", "setting": "Test System: AMES SALMONELLA TYPHIMURIUM, Strain/Indicator: TA98, Metabolic Activation: NONE, Method: SUSPENSION", "value": "active; positive"}, {"measurement": "mutagenic call", "setting": "Test System: AMES SALMONELLA TYPHIMURIUM, Strain/Indicator: TA98, Metabolic Activation: RAT, LIVER, S-9, PCB (5%), Method: PREINCUBATION", "value": "active; positive"}, {"measurement": "mutagenic call", "setting": "Test System: AMES SALMONELLA TYPHIMURIUM, Strain/Indicator: TA98, Metabolic Activation: RAT, LIVER, S-9, PCB, Method: SUSPENSION", "value": "active; positive"}, {"measurement": "mutagenic call", "setting": "Test System: AMES SALMONELLA TYPHIMURIUM, Strain/Indicator: TA100, Metabolic Activation: NONE, Method: PREINCUBATION", "value": "inactive; negative"}, {"measurement": "mutagenic call", "setting": "Test System: AMES SALMONELLA TYPHIMURIUM, Strain/Indicator: TA100, Metabolic Activation: NONE, Method: SUSPENSION", "value": "inactive; negative"}, {"measurement": "mutagenic call", "setting": "Test System: AMES SALMONELLA TYPHIMURIUM, Strain/Indicator: TA100, Metabolic Activation: RAT, LIVER, S-9, PCB (5%), Method: PREINCUBATION", "value": "inactive; negative"}, {"measurement": "mutagenic call", "setting": "Test System: AMES SALMONELLA TYPHIMURIUM, Strain/Indicator: TA100, Metabolic Activation: RAT, LIVER, S-9, PCB, Method: SUSPENSION", "value": "active; positive"}]}, {"smiles": "Brc1cc(Br)c(-c2cc(Br)c(Br)cc2Br)cc1Br", "values": [{"measurement": "mutagenic call", "setting": "Test System: CHINESE HAMSTER V-79, Strain/Indicator: V-79 (HGPRT)/6-THIOGUANINE, Metabolic Activation: NONE", "value": "inactive; negative"}]}, {"smiles": "O=CC(O)C(O)C(O)C(O)COC1OC(COC2OC(CO)C(O)C(O)C2O)C(O)C(O)C1O", "note": "(configuration not stated)", "values": [{"measurement": "mutagenic call", "setting": "Test System: AMES SALMONELLA TYPHIMURIUM, Strain/Indicator: TA98, Metabolic Activation: HAMSTER, LIVER, S-9, AROCLOR 1254, Method: STANDARD PLATE", "value": "inactive; negative"}, {"measurement": "mutagenic call", "setting": "Test System: AMES SALMONELLA TYPHIMURIUM, Strain/Indicator: TA98, Metabolic Activation: NONE, Method: STANDARD PLATE", "value": "inactive; negative"}, {"measurement": "mutagenic call", "setting": "Test System: AMES SALMONELLA TYPHIMURIUM, Strain/Indicator: TA98, Metabolic Activation: RAT, LIVER, S-9, AROCLOR 1254, Method: STANDARD PLATE", "value": "inactive; negative"}, {"measurement": "mutagenic call", "setting": "Test System: AMES SALMONELLA TYPHIMURIUM, Strain/Indicator: TA100, Metabolic Activation: HAMSTER, LIVER, S-9, AROCLOR 1254, Method: STANDARD PLATE", "value": "inactive; negative"}, {"measurement": "mutagenic call", "setting": "Test System: AMES SALMONELLA TYPHIMURIUM, Strain/Indicator: TA100, Metabolic Activation: NONE, Method: STANDARD PLATE", "value": "inactive; negative"}, {"measurement": "mutagenic call", "setting": "Test System: AMES SALMONELLA TYPHIMURIUM, Strain/Indicator: TA100, Metabolic Activation: RAT, LIVER, S-9, AROCLOR 1254, Method: STANDARD PLATE", "value": "inactive; negative"}, {"measurement": "mutagenic call", "setting": "Test System: AMES SALMONELLA TYPHIMURIUM, Strain/Indicator: TA1535, Metabolic Activation: HAMSTER, LIVER, S-9, AROCLOR 1254, Method: STANDARD PLATE", "value": "inactive; negative"}, {"measurement": "mutagenic call", "setting": "Test System: AMES SALMONELLA TYPHIMURIUM, Strain/Indicator: TA1535, Metabolic Activation: NONE, Method: STANDARD PLATE", "value": "inactive; negative"}, {"measurement": "mutagenic call", "setting": "Test System: AMES SALMONELLA TYPHIMURIUM, Strain/Indicator: TA1535, Metabolic Activation: RAT, LIVER, S-9, AROCLOR 1254, Method: STANDARD PLATE", "value": "inactive; negative"}, {"measurement": "mutagenic call", "setting": "Test System: AMES SALMONELLA TYPHIMURIUM, Strain/Indicator: TA1537, Metabolic Activation: HAMSTER, LIVER, S-9, AROCLOR 1254, Method: STANDARD PLATE", "value": "inactive; negative"}, {"measurement": "mutagenic call", "setting": "Test System: AMES SALMONELLA TYPHIMURIUM, Strain/Indicator: TA1537, Metabolic Activation: NONE, Method: STANDARD PLATE", "value": "inactive; negative"}, {"measurement": "mutagenic call", "setting": "Test System: AMES SALMONELLA TYPHIMURIUM, Strain/Indicator: TA1537, Metabolic Activation: RAT, LIVER, S-9, AROCLOR 1254, Method: STANDARD PLATE", "value": "inactive; negative"}, {"measurement": "mutagenic call", "setting": "Test System: AMES SALMONELLA TYPHIMURIUM, Strain/Indicator: TA1538, Metabolic Activation: HAMSTER, LIVER, S-9, AROCLOR 1254, Method: STANDARD PLATE", "value": "inactive; negative"}, {"measurement": "mutagenic call", "setting": "Test System: AMES SALMONELLA TYPHIMURIUM, Strain/Indicator: TA1538, Metabolic Activation: NONE, Method: STANDARD PLATE", "value": "inactive; negative"}, {"measurement": "mutagenic call", "setting": "Test System: AMES SALMONELLA TYPHIMURIUM, Strain/Indicator: TA1538, Metabolic Activation: RAT, LIVER, S-9, AROCLOR 1254, Method: STANDARD PLATE", "value": "inactive; negative"}, {"measurement": "mutagenic call", "setting": "Test System: Mouse lymphoma, Strain/Indicator: L5178Y (tk+/tk-), Metabolic Activation: None, Method: Suspension/plate", "value": "inactive; negative"}, {"measurement": "mutagenic call", "setting": "Test System: Mouse lymphoma, Strain/Indicator: L5178Y (tk+/tk-), Metabolic Activation: Rat, Liver, S-9, Aroclor 1254, Method: Suspension/plate", "value": "inactive; negative"}]}, {"smiles": "C=Cc1ccc(S(=O)(=O)O)cc1", "values": [{"measurement": "mutagenic call", "setting": "Test System: Ames Salmonella typhimurium, Strain/Indicator: TA98, Metabolic Activation: None, Method: Preincubation", "value": "inactive; negative"}, {"measurement": "mutagenic call", "setting": "Test System: Ames Salmonella typhimurium, Strain/Indicator: TA98, Metabolic Activation: Rat, Liver, S-9, Phenobarbital and 5,6-benzoflavone, Method: Preincubation", "value": "inactive; negative"}, {"measurement": "mutagenic call", "setting": "Test System: Ames Salmonella typhimurium, Strain/Indicator: TA100, Metabolic Activation: None, Method: Preincubation", "value": "inactive; negative"}, {"measurement": "mutagenic call", "setting": "Test System: Ames Salmonella typhimurium, Strain/Indicator: TA100, Metabolic Activation: Rat, Liver, S-9, Phenobarbital and 5,6-benzoflavone, Method: Preincubation", "value": "inactive; negative"}, {"measurement": "mutagenic call", "setting": "Test System: Ames Salmonella typhimurium, Strain/Indicator: TA1535, Metabolic Activation: None, Method: Preincubation", "value": "inactive; negative"}, {"measurement": "mutagenic call", "setting": "Test System: Ames Salmonella typhimurium, Strain/Indicator: TA1535, Metabolic Activation: Rat, Liver, S-9, Phenobarbital and 5,6-benzoflavone, Method: Preincubation", "value": "inactive; negative"}, {"measurement": "mutagenic call", "setting": "Test System: Ames Salmonella typhimurium, Strain/Indicator: TA1537, Metabolic Activation: None, Method: Preincubation", "value": "inactive; negative"}, {"measurement": "mutagenic call", "setting": "Test System: Ames Salmonella typhimurium, Strain/Indicator: TA1537, Metabolic Activation: Rat, Liver, S-9, Phenobarbital and 5,6-benzoflavone, Method: Preincubation", "value": "inactive; negative"}, {"measurement": "mutagenic call", "setting": "Test System: E. coli, Strain/Indicator: WP2uvrA/pKM101, Metabolic Activation: None, Method: Preincubation", "value": "inactive; negative"}, {"measurement": "mutagenic call", "setting": "Test System: E. coli, Strain/Indicator: WP2uvrA/pKM101, Metabolic Activation: Rat, Liver, S-9, Phenobarbital and 5,6-benzoflavone, Method: Preincubation", "value": "inactive; negative"}]}, {"smiles": "C[C@H](CCC(=O)O)[C@H]1CC[C@H]2[C@@H]3CC[C@@H]4CC(=O)CC[C@]4(C)[C@H]3C[C@@H](O)[C@]12C", "values": [{"measurement": "mutagenic call", "setting": "Test System: AMES SALMONELLA TYPHIMURIUM, Strain/Indicator: TA98, Metabolic Activation: NONE, Method: FLUCTUATION TEST", "value": "inactive; negative"}, {"measurement": "mutagenic call", "setting": "[1]", "value": "inactive; negative"}, {"measurement": "mutagenic call", "setting": "Test System: AMES SALMONELLA TYPHIMURIUM, Strain/Indicator: TA98, Metabolic Activation: RAT, LIVER, S-9, PCB, Method: PREINCUBATION", "value": "inactive; negative"}, {"measurement": "mutagenic call", "setting": "Test System: AMES SALMONELLA TYPHIMURIUM, Strain/Indicator: TA100, Metabolic Activation: NONE, Method: FLUCTUATION TEST", "value": "inactive; negative"}]}, {"smiles": "OCc1c2ccccc2c(CO)c2c1ccc1ccccc12", "values": [{"measurement": "mutagenic call", "setting": "Test System: AMES SALMONELLA TYPHIMURIUM, Strain/Indicator: TA98, Metabolic Activation: RAT, LIVER, S-9, NADPH GENERATING SYSTEM, Method: PREINCUBATION", "value": "inactive; negative"}, {"measurement": "mutagenic call", "setting": "Test System: AMES SALMONELLA TYPHIMURIUM, Strain/Indicator: TA98, Metabolic Activation: RAT, LIVER, S-105, PAPS GENERATING SYSTEM, Method: PREINCUBATION", "value": "active; positive"}]}]}
